Consider 17 compounds from US12630547B2, “RAS protein degraders, pharmaceutical compositions thereof, and their therapeutic applications” (BioTheryX, Inc., priority 2019, dated 2026).

Bounds are passed on as bounds.

Holding throughout (assay type): cell-based
One assay relates to MOLM-13 cells. The experiment in a line: Cell viability assay (CELLTITER-GLO), MOLM-13 cells. To be noted: Homo sapiens, MOLM-13, 72 h; Table 2; compound at 10 μM, 3 days; read-out: Effect on MOLM-13 cell viability (% DMSO). Here is the method:
(§1) MOLM-13 cells, MV-4-11 cells, H23, and H358 cells were independently cultured in RPMI 1640 media supplemented with 10% fetal bovine serum, streptomycin and penicillin. The cells were plated in white walled 96-well plates at 4,000 cells/well. The cells were incubated in DMSO (control) or a compound for 3 days at 37° C. under 5% CO2. A CELLTITER-GLO® reagent (100 μL) was then added to each well. After a 10 min incubation with shaking, luminescence was measured using an ENVISION® multimode plate reader.
In Tables 1 and 2, each compound was tested at 10 μM; and in Table 3, each compound was tested at 1 μM. In Tables 1 to 3, the cell viability values as % DMSO are reported as “A,” “B,” “C,” or “D;” where “A” represents a % viability value of less than 10%; “B” represents a % viability value of no less than 10% and less than 25%; “C” represents a % viability value of no less than 25% and less than 50%; and “D” represents a % viability value of no less than 50%. Compound A is […]
A general note: Cellular ATP, detected with luciferase, serves as a proxy for viable cell number.

Another assay concerns H358 cells. Briefly: Cell viability assay (CELLTITER-GLO), H358 cells. As to conditions: Table 4; 3 days. The protocol: as §1
In Tables 1 and 2, each compound was tested at 10 μM; and in Table 3, each compound was tested at 1 μM. In Tables 1 to 3, the cell viability values as % DMSO are reported as “A,” “B,” “C,” or “D;” where “A” represents a % viability value of less than 10%; “B” represents a % viability value of no less than 10% and less than 25%; “C” represents a % viability value of no less than 25% and less than 50%; and “D” represents a % viability value of no less than 50%. Compound A is
(§2) IC50 values are summarized in Table 4, where “A” represents an IC50 value of no greater than 1 μM, “B” represents an IC50 value of greater than 1 μM and no greater than 5 μM, “C” represents an IC50 value of greater than 5 μM and no greater than 10 μM, and “D” represents an IC50 value of greater than 10 μM.

A further assay relates to H23 cells. The experiment in a line: Cell viability assay (CELLTITER-GLO), H23 cells. As to conditions: Table 4; 3 days. The protocol:
as §1, §2

By viability is commonly meant the share of living cells, or the viability signal relative to a control. Turning to `C=CC(=O)N1CC(c2nc3ccc(-c4cc(O)cc5ccccc45)cc3c(=O)n2CC(=O)NCCOCCOCCOCCNc2cccc3c2C(=O)N(C2CCC(=O)NC2=O)C3=O)C1` (stereo not shown) [Compound 17, 2-(2-(1-Acryloylazetidin-3-yl)-6-(3-hydroxynaphthalen-1-yl)-4-oxoquinazolin-3(4H)-yl)-N-(2-(2-(2-(2-((2-(2,6-dioxopiperidin-3-yl)-1,3-dioxoisoindolin-4-yl)amino)ethoxy)ethoxy)ethoxy)-ethyl)acetamide], the viability at 10 µM with MOLM-13 cells was no less than 50%.

As to `C=CC(=O)N1CC(c2nc3ccc(-c4cc(O)cc5ccccc45)cc3c(=O)n2CCNCc2ccc(OCc3scc4c3CN(C3CCC(=O)NC3=O)C4=O)cc2)C1` (stereo not shown) [Compound 18, 3-(1-((4-(((2-(2-(1-Acryloylazetidin-3-yl)-6-(3-hydroxynaphthalen-1-yl)-4-oxoquinazolin-3(4H)-yl)ethyl)amino)methyl)phenoxy)methyl)-4-oxo-4H-thieno[3,4-c]pyrrol-5(6H)-yl)piperidine-2,6-dione], the viability at 10 µM with MOLM-13 cells was no less than 50%.

With `C=CC(=O)N1CC(N2Cc3ccc(-c4cc(O)cc5ccccc45)cc3N(CCCCNCc3ccc(OCc4scc5c4CN(C4CCC(=O)NC4=O)C5=O)cc3)C2=O)C1` (stereo not shown) [Compound 19, 3-(1-((4-(((4-(3-(1-Acryloylazetidin-3-yl)-7-(3-hydroxynaphthalen-1-yl)-2-oxo-3,4-dihydroquinazolin-1(2H)-yl)butyl)amino)methyl)phenoxy)methyl)-4-oxo-4H-thieno[3,4-c]pyrrol-5(6H)-yl)piperidine-2,6-dione], the viability at 10 µM in the assay on MOLM-13 cells is no less than 50%.

Consider `C=CC(=O)N1CC(c2nc3ccc(-c4cc(O)cc5ccccc45)cc3c(=O)n2CCOCCNCc2ccc(OCc3scc4c3CN(C3CCC(=O)NC3=O)C4=O)cc2)C1` (stereo not shown) [Compound 21, 3-(1-((4-(((2-(2-(2-(1-Acryloylazetidin-3-yl)-6-(3-hydroxynaphthalen-1-yl)-4-oxoquinazolin-3(4H)-yl)ethoxy)ethyl)amino)methyl)phenoxy)methyl)-4-oxo-4H-thieno[3,4-c]pyrrol-5(6H)-yl)piperidine-2,6-dione], for which the viability at 10 µM in the assay on MOLM-13 cells is no less than 50%.

As to `CCC(=O)N1CCN(c2ncnc3c(F)c(-c4c(F)cccc4OCCCCCCCNCc4ccc(OCc5scc6c5CN([C@H]5CCC(=O)NC5=O)C6=O)cc4)c(Cl)cc23)CC1` [Compound 25, (3S)-3-(1-((4-(((7-(2-(6-Chloro-8-fluoro-4-(4-propionylpiperazin-1-yl)quinazolin-7-yl)-3-fluorophenoxy)heptyl)amino)methyl)phenoxy)methyl)-4-oxo-4H-thieno[3,4-c]pyrrol-5(6H)-yl)piperidine-2,6-dione], the viability at 10 µM in the assay on MOLM-13 cells was less than 10%.

Take `CCC(=O)N1CC(c2nc3ccc(-c4cc(O)cc5ccccc45)cc3c(=O)n2CCOCCNCc2ccc(OCc3scc4c3CN(C3CCC(=O)NC3=O)C4=O)cc2)C1` (stereo not shown) [Compound 26, 3-(1-((4-(((2-(2-(6-(3-Hydroxynaphthalen-1-yl)-4-oxo-2-(1-propionylazetidin-3-yl)quinazolin-3(4H)-yl)ethoxy)ethyl)amino)methyl)phenoxy)methyl)-4-oxo-4H-thieno[3,4-c]pyrrol-5(6H)-yl)piperidine-2,6-dione]: the viability at 10 µM in the assay with MOLM-13 cells is no less than 50%.

As to `C=CC(=O)N1CCN(c2ncnc3c(F)c(-c4c(F)cccc4OCCCCCCCNC(=O)NCc4scc5c4CN(C4CCC(=O)NC4=O)C5=O)c(Cl)cc23)CC1` (stereo not shown) [Compound 27, 1-(7-(2-(4-(4-Acryloylpiperazin-1-yl)-6-chloro-8-fluoroquinazolin-7-yl)-3-fluorophenoxy)heptyl)-3-((5-(2,6-dioxopiperidin-3-yl)-4-oxo-5,6-dihydro-4H-thieno[3,4-c]pyrrol-1-yl)methyl)urea], the viability at 10 µM in the assay on MOLM-13 cells was less than 10%.

As for `CCC(=O)N1CCN(c2ncnc3c(F)c(-c4c(F)cccc4OCCCCCCCNC(=O)NCc4scc5c4CN(C4CCC(=O)NC4=O)C5=O)c(Cl)cc23)CC1` (stereo not shown) [Compound 28, 1-(7-(2-(6-Chloro-8-fluoro-4-(4-propionylpiperazin-1-yl)quinazolin-7-yl)-3-fluorophenoxy)heptyl)-3-((5-(2,6-dioxopiperidin-3-yl)-4-oxo-5,6-dihydro-4H-thieno[3,4-c]pyrrol-1-yl)methyl)urea], in the assay with MOLM-13 cells, the viability at 10 µM is less than 10%.

In the case of `C=CC(=O)N1CCN(c2ncnc3c(F)c(-c4c(F)cccc4OCCOCCOCCC(=O)NCCNc4cccc5c4CN(C4CCC(=O)NC4=O)C5=O)c(Cl)cc23)CC1` (stereo not shown) [Compound 29, 3-(2-(2-(2-(4-(4-Acryloylpiperazin-1-yl)-6-chloro-8-fluoroquinazolin-7-yl)-3-fluorophenoxy)ethoxy)ethoxy)-N-(2-((2-(2,6-dioxopiperidin-3-yl)-1-oxoisoindolin-4-yl)amino)ethyl)propanamide], the viability at 10 µM in the assay with MOLM-13 cells is less than 10%.

`CCC(=O)N1CCN(c2ncnc3c(F)c(-c4c(F)cccc4OCCOCCOCCC(=O)NCCNc4cccc5c4CN(C4CCC(=O)NC4=O)C5=O)c(Cl)cc23)CC1` (stereo not shown) [Compound 30, 3-(2-(2-(2-(6-chloro-8-fluoro-4-(4-propionylpiperazin-1-yl)quinazolin-7-yl)-3-fluorophenoxy)ethoxy)ethoxy)-N-(2-((2-(2,6-dioxopiperidin-3-yl)-1-oxoisoindolin-4-yl)amino)ethyl)propanamide]: the viability at 10 µM with MOLM-13 cells was no less than 50%.

Consider `CC(=O)N1CCN(c2ncnc3c(F)c(-c4c(F)cccc4OCCOCCOCCOCCNc4cccc5c4C(=O)N(C4CCC(=O)NC4=O)C5=O)c(Cl)cc23)CC1` (stereo not shown) [Compound 31, 4-((2-(2-(2-(2-(2-(4-(4-Acetylpiperazin-1-yl)-6-chloro-8-fluoroquinazolin-7-yl)-3-fluorophenoxy)ethoxy)ethoxy)ethoxy)ethyl)amino)-2-(2,6-dioxopiperidin-3-yl)isoindoline-1,3-dione], for which the viability at 10 µM with MOLM-13 cells is no less than 50%.

Take `NC(=O)N1CCN(c2ncnc3c(F)c(-c4c(F)cccc4OCCOCCOCCOCCNc4cccc5c4C(=O)N(C4CCC(=O)NC4=O)C5=O)c(Cl)cc23)CC1` (stereo not shown) [Compound 32, 4-(6-Chloro-7-(2-(2-(2-(2-(2-((2-(2,6-dioxopiperidin-3-yl)-1,3-dioxoisoindolin-4-yl)amino)ethoxy)ethoxy)ethoxy)ethoxy)-6-fluorophenyl)-8-fluoroquinazolin-4-yl)piperazine-1-carboxamide]: in the assay with MOLM-13 cells, the viability at 10 µM is no less than 50%.

For the compound `CCC(=O)N1CCN(c2ncnc3c(F)c(-c4c(F)cccc4OCCCCCCCCNc4cccc5c4C(=O)N(C4CCC(=O)NC4=O)C5=O)c(Cl)cc23)CC1` (stereo not shown) [Compound 33, 4-((8-(2-(6-Chloro-8-fluoro-4-(4-propionylpiperazin-1-yl)quinazolin-7-yl)-3-fluorophenoxy)octyl)amino)-2-(2,6-dioxopiperidin-3-yl)isoindoline-1,3-dione], the viability at 10 µM in the assay with MOLM-13 cells was in the range of 25 to 50%.

As to `C=CC(=O)N1CCN(c2ncnc3c(F)c(-c4c(F)cccc4OCCCCCCCCNc4cccc5c4C(=O)N(C4CCC(=O)NC4=O)C5=O)c(Cl)cc23)CC1` (stereo not shown) [Compound 34, 4-((8-(2-(4-(4-Acryloylpiperazin-1-yl)-6-chloro-8-fluoroquinazolin-7-yl)-3-fluorophenoxy)octyl)amino)-2-(2,6-dioxopiperidin-3-yl)isoindoline-1,3-dione], the viability at 10 µM in the assay on MOLM-13 cells lay within 10 to 25%.

Regarding `CCC(=O)N1CC(N2Cc3ccc(-c4cc(O)cc5ccccc45)cc3N(CC(=O)NCCCCCCCN3CCC(c4cc(F)cc5c4CN(C4CCC(=O)NC4=O)C5=O)CC3)C2=O)C1` (stereo not shown) [Compound 35, N-(7-(4-(2-(2,6-Dioxopiperidin-3-yl)-6-fluoro-1-oxoisoindolin-4-yl)piperidin-1-yl)heptyl)-2-(7-(3-hydroxynaphthalen-1-yl)-2-oxo-3-(1-propionylazetidin-3-yl)-3,4-dihydroquinazolin-1(2H)-yl)acetamide], in the assay with MOLM-13 cells, the viability at 10 µM was in the range of 10 to 25%.

As to `C=CC(=O)N1CCN(c2ncnc3c(F)c(-c4cc(OCCOCCOCCC(=O)NCCNc5cccc6c5CN(C5CCC(=O)NC5=O)C6=O)ccc4F)c(Cl)cc23)CC1` [Compound 39, 3-(2-(2-((R)-3-(4-(4-Acryloylpiperazin-1-yl)-6-chloro-8-fluoroquinazolin-7-yl)-4-fluorophenoxy)ethoxy)ethoxy)-N-(2-((2-(2,6-dioxopiperidin-3-yl)-1-oxoisoindolin-4-yl)amino)ethyl)propanamide], the “Inhibition of H358 cells, IC50 (class)” value with H358 cells is given as “D′”. In the assay on H23 cells, the “Inhibition of H23 cells, IC50 (class)” value is “D′”.

Consider `C=CC(=O)N1CCN(c2nc(OCCOCCOCCOCCNc3cccc4c3C(=O)N(C3CCC(=O)NC3=O)C4=O)nc3c2CCN(c2cccc4ccccc24)C3)C[C@H]1C` (stereo partly drawn) [Compound 47, 4-((2-(2-(2-(2-((4-((R)-4-Acryloyl-3-methylpiperazin-1-yl)-7-(naphthalen-1-yl)-5,6,7,8-tetrahydropyrido[3,4-d]pyrimidin-2-yl)oxy)ethoxy)ethoxy)ethoxy)ethyl)amino)-2-(2,6-dioxopiperidin-3-yl)isoindoline-1,3-dione], for which, in the assay on H358 cells, the “Inhibition of H358 cells, IC50 (class)” value is “C′”. Further, in the assay with H23 cells, the “Inhibition of H23 cells, IC50 (class)” value is on record as “B′”.
